Tests used:
Male Sprague Dawley rats = assay: Preventative Adjuvant Edema (acute anti-inflammatory effect, hind paw edema volume); assay type: in vivo; settings: 25 mg/kg, p.o., edema volume day 0 to day 3
Experimental: This test is a primary screen for anti-inflammatory drugs.
Male Sprague Dawley rats (180-200 g) are used. The animals have free access to water but food is withdrawn 18 hours before testing.
Freund's complete adjuvant is prepared by suspending 5 mg of killed and dried Mycobacterium butyricum (Difco) in 1 ml liquid paraffin. The test compounds are dissolved in distilled water or suspended in 0.5% Tween 80 in distilled water according to their solubility. For primary screening all drugs are administered by gastric lavage at the arbitrary dosage of 25 mg/kg, p.o. in a volume of 0.5 mL/100 g body weight to groups of 10 animals.
The method is essentially that described by Wax et al, J. Pharmacol. Exp. Ther., 192, 166-171 (1975). Groups of rats are injected intradermally in the left hind paw with 0.1 mL of Freund's complete adjuvant. The test compound or vehicle is administered immediately before the adjuvant, 24 hours and 48 hours after the adjuvant (days 0, 1 and 2). The injected hind paw volume is measured before the injection of adjuvant and 24 hours after the last drug administration (day 3) by means of a plethysmometer (Buxco Electronics Inc.). The difference between the hind paw volume on day 0 and day 3 represents the edema volume. Etodolac (25 mg/kg, p.o.) is included as a positive control.
The mean edema volume (expressed as mL ±SEM) is calculated for each group and the percentage inhibition of inflammation conferred by the drug is calculated: [formula] where c is the mean edema volume for the untreated controls and t is the mean edema volume for the drug treated group.

Male Swiss albino mice = assay: Drug Effects on Phenylbenzoquinone-induced Writhing in Mice; assay type: in vivo; settings: 10 mg/kg, p.o., PBQ i.p. 60 minutes after dosing, writhes counted over 15 minutes
Experimental: A further test used to determine the utility of the compounds of the present invention is designated: Drug Effects on Phenylbenzoquinone-induced Writhing in Mice
The objective of this test is to determine the ability of test drugs to inhibit the nociceptive (pain) response of mice injected with a chemical irritant. This test is a primary screen for both peripheral and centrally acting analgesic drugs.
Male Swiss albino mice (15-25 g) are used. The animals are fasted for 18 hours prior to use but have free access to water.
Drugs are dissolved or suspended according to their solubility in 0.5% Tween 80 in distilled water. They are administered by gastric gavage in a volume of 5 mL/kg. For primary screening all drugs are administered at the arbitary dosage of 25 mg/kg, p.o. to a group of 10 mice.
A modification of the method of Siegmund et al, Proc. Soc. Exp. Biol. Med., 95, 729-731 (1957) is used. Groups of 5 mice are dosed with the test compound or vehicle control. Sixty minutes later the animals are injected i.p. with 0.3 mL/20 g body weight of a 0.02% solution of phenylbenzoquinone (PBQ; 2-phenyl-1,4-benzoquinone) and placed in individual observation boxes. The number of writhing or abdominal squirming movements made by each mouse during the following 15 minute period is counted. The experiment is repeated with another group of 5 mice and the mean number of writhes per mouse for a group of 10 mice is calculated.
Drug treated and vehicle-treated control groups are compared and the percentage inhibition of writhing conferred by the drug is calculated: [formula] where c=mean number of writhes in the control group where t=mean number of writhes in the test drug group

Structure (SMILES) | inhibition (Preventative Adjuvant Edema) (Male Sprague Dawley rats) | inhibition (Phenylbenzoquinone Writhing in Mice) (Male Swiss albino mice)
CCc1cccc2c3c([nH]c12)[C@]1(CC(=O)O)C[C@@H]1CC3 (relative stereo) [Example 6, (1a. α,8b. α)-7-Ethyl-1,1a,2,3,8,8b-hexahydrocyclopropa[a]carbazole-8b-acetic Acid] | 13% | 27%
Cc1c(Cl)ccc2c3c([nH]c12)[C@@]1(CC(=O)O)CC[C@H]1CC3 (relative stereo) [Example 2, cis-7-Chloro-1,2,2a,3,4,9-hexahydro-8-methyl-9bH-cyclobuta[a]carbazole-9b-acetic Acid] | 85% | 56%
O=C(O)C[C@]12CC[C@H]1CCc1c2[nH]c2ccccc12 (relative stereo) [Example 4, cis-1,2,2a,3,4,9-Hexahydro-9bH-cyclobuta[a]carbazole-9b-acetic Acid] | 64% | 21%
CCCc1cc(C(C)=O)cc2c3c([nH]c12)[C@@]1(CC(=O)O)CC[C@H]1CC3 (relative stereo) [Example 5, cis-6-Acetyl-1,2,2a,3,4,9-hexahydro-8-propyl-9bH-cyclobuta[a]carbazole-9b-acetic Acid] |  | 56%
Cc1c(Cl)ccc2c3c([nH]c12)[C@]1(CC(=O)O)CC[C@@H]1CC3Cc1ccccc1 (relative stereo) [Example 1, cis-7-Chloro-1,2,2a,3,4,9-hexahydro-8-methyl-4-(phenylmethyl)-9bH-cyclobuta[a]carbazole-9b-acetic Acid] | 26% | 73%
O=C(O)C[C@@]12CC[C@@H]1CC(Cc1ccccc1)c1c2[nH]c2ccccc12 (relative stereo) [Example 7, cis-1,2,2a,3,4,9-Hexahydro-4-(phenylmethyl)-9bH-cyclobuta[a]carbazole-9b-acetic Acid] |  | 0%
